Active and inactive are the calls of the source. No cut-off for these calls is given here. Starred links: 1 amine or outer side, 2 acyl side, 3 side chain; linkers in the order of their positions; H or OH if unused. Non-standard residues stand in square brackets, D forms with d. Residues, ends and D or L forms follow the SMILES beside them. *: point of attachment. X1 = N=C(CCl)NCCCC(N[*:1])C(=O)[*:2]; Butanoyl(4-ethynyl) = C#CCCCC(=O)*
Assays:
[1] = molecular target: T1, Protein arginine N-methyltransferase 1 (Homo sapiens, UniProt Q99873); experiment: Inhibition of recombinant full-length N-terminal His6-tagged PRMT1 (unknown origin) using AcH4-21 peptide substrate preincubated for 10 mins followed by substrate/14C-methyl-SAM addition and measured after 15 mins by phosphorimaging analysis based radioisotopic assay
Target sequence in this assay (Q99873 whole entry): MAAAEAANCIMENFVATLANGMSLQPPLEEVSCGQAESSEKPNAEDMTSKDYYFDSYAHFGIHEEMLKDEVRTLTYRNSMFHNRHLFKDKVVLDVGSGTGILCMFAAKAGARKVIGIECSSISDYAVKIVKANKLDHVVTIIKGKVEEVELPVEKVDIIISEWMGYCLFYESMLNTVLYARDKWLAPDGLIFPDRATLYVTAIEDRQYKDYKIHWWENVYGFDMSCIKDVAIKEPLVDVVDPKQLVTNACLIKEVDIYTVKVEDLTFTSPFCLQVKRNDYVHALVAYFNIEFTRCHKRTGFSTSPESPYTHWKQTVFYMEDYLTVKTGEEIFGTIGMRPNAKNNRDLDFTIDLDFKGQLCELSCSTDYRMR

[2] = molecular target: T2, Protein arginine N-methyltransferase 5 (Homo sapiens, UniProt O14744); experiment: Inhibition of recombinant full-length N-terminal His6-tagged PRMT5 (unknown origin) using AcH4-21 peptide substrate preincubated for 10 mins followed by substrate/14C-methyl-SAM addition and measured after 15 mins by phosphorimaging analysis based radioisotopic assay
T2 sequence (O14744 whole entry): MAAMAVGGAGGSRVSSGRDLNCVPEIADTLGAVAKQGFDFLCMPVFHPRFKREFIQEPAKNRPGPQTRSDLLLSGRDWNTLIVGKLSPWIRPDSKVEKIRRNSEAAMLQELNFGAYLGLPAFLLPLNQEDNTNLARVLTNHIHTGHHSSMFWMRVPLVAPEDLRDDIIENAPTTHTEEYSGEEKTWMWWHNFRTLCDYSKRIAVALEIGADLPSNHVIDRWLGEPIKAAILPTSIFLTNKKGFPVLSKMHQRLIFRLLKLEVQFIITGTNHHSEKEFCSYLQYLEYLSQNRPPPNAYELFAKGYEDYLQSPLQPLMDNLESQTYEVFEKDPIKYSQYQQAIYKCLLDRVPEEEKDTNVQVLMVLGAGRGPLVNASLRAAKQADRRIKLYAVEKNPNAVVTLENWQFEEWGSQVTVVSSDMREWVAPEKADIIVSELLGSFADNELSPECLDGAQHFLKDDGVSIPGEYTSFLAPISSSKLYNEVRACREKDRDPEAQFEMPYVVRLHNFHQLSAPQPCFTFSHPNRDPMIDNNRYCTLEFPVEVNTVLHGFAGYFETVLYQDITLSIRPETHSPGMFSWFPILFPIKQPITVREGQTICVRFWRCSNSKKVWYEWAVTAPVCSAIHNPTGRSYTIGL

[3] = molecular target: T1, Protein arginine N-methyltransferase 1; experiment: Binding affinity to recombinant full-length N-terminal His6-tagged PRMT1 (unknown origin) assessed as biotin labelling of PRMT1 at >25 uM using biotin azide incubated for 30 mins by Western blot analysis
Target sequence in this assay (Q99873 whole entry, looked up): as the sequence (Q99873 whole entry) above

[4] = molecular target: T2, Protein arginine N-methyltransferase 5; experiment: Binding affinity to recombinant full-length N-terminal His6-tagged PRMT5 (unknown origin) assessed as biotin labelling of PRMT5 at 50 uM using biotin azide incubated for 30 mins by Western blot analysis
Homo sapiens [5] = species: Homo sapiens; experiment: Selectivity index, ratio of binding affinity to recombinant full-length N-terminal His6-tagged PRMT5 (unknown origin) assessed as biotin labelling of PRMT5 at 25 uM to binding affinity to recombinant full-length N-terminal His6-tagged PRMT1 (unknown origin) assessed as biotin labelling of PRMT1 at 25 uM
[6] = molecular target: T1, Protein arginine N-methyltransferase 1; experiment: (§1) Binding affinity to recombinant full-length N-terminal His6-tagged PRMT1 (unknown origin) assessed as biotin labelling of PRMT1 at 1 uM using biotin azide and in presence of SAM incubated for 30 mins by Western blot analysis
Target sequence in this assay (Q99873 whole entry, looked up): as the sequence (Q99873 whole entry) above

[7] = molecular target: T1, Protein arginine N-methyltransferase 1; experiment: Binding affinity to recombinant full-length N-terminal His6-tagged PRMT1 (unknown origin) assessed as biotin labelling of PRMT1 at 1 uM using biotin azide and in absence of SAM incubated for 30 mins by Western blot analysis
Target sequence in this assay (Q99873 whole entry, looked up): as the sequence (Q99873 whole entry) above

[8] = molecular target: T1, Protein arginine N-methyltransferase 1; experiment: Binding affinity to recombinant full-length N-terminal His6-tagged PRMT1 (unknown origin) assessed as time needed for maximum biotin labelling of PRMT1 at 10 uM using biotin azide and in presence of SAM incubated for 30 mins by Western blot analysis
Target sequence in this assay (Q99873 whole entry, looked up): as the sequence (Q99873 whole entry) above

[9] = molecular target: T1, Protein arginine N-methyltransferase 1; experiment: Binding affinity to recombinant full-length N-terminal His6-tagged PRMT1 (unknown origin) assessed as lowest drug level for biotin labelling of PRMT1 using biotin azide and in presence of SAM incubated for 30 mins by Western blot analysis
Target sequence in this assay (Q99873 whole entry, looked up): as the sequence (Q99873 whole entry) above

Homo sapiens [10] = species: Homo sapiens; experiment: Binding affinity to PRMT1 C101A mutant (unknown origin) assessed as biotin labelling of PRMT1 at <25 uM using biotin azide and in presence of SAM incubated for 30 mins by Western blot analysis
Homo sapiens [11] = species: Homo sapiens; experiment: Binding affinity to PRMT1 C101A mutant (unknown origin) assessed as biotin labelling of PRMT1 at >25 uM using biotin azide and in presence of SAM incubated for 30 mins by Western blot analysis
Homo sapiens [12] = species: Homo sapiens; experiment: Binding affinity to PRMT1 C101A mutant (unknown origin) assessed as optimum drug level for biotin labelling of PRMT1 using biotin azide and in presence of SAM incubated for 30 mins by Western blot analysis
[13] = molecular target: T1, Protein arginine N-methyltransferase 1; experiment: as §1, with “at 10” for “at 1”, “uM in presence of recombinant full-length N-terminal His6-tagged PRMT5 (unknown origin)” for “uM”, “mins at 25 degC” for “mins”
Target sequence in this assay (Q99873 whole entry, looked up): as the sequence (Q99873 whole entry) above

[14] = molecular target: T1, Protein arginine N-methyltransferase 1; experiment: as §1, with “at 10” for “at 1”, “uM in presence of recombinant full-length N-terminal His6-tagged PRMT5 (unknown origin)” for “uM”, “mins at 37 degC” for “mins”

IC50 [1]: 20 µM
IC50 [2]: > 500 µM
Activity [3]: Active
Activity [4]: inactive
Ratio (Homo sapiens [5]): 8
Activity [6]: Active
Activity [7]: Active
TIME [8]: 0.5 h
Activity [9]: 0.25 µM
Activity (Homo sapiens [10]): inactive
Activity (Homo sapiens [11]): Active
Activity (Homo sapiens [12]): 10 µM
Activity [13]: Active
Activity [14]: Active
SMILES: C#CCCCC(=O)N[C@@H](Cc1cnc[nH]1)C(=O)N[C@@H](CCCCN)C(=O)N[C@@H](Cc1cnc[nH]1)C(=O)N[C@@H](C)C(=O)NC(CCCNC(=N)CCl)C(=O)NCC(=O)NCC(=O)N[C@@H](CCCCN)C(=O)NCC(=O)N[C@@H](CC(C)C)C(=O)NCC(=O)N[C@@H](CCCCN)C(=O)NCC(=O)NCC(=O)N[C@@H](C)C(=O)N[C@@H](CCCCN)C(=O)O (some centres undefined) ({Butanoyl(4-ethynyl)}-HKHA[X1]GGKGLGKGGAK-OH)
